In PubChem BioAssay (NCI):
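Five compound concentrations were applied to cells in 96-well plates for 48 hours; endpoints were derived by simple linear interpolation of the resulting dose-response curve. TGI is the concentration that stops growth completely.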

Columns and labels:
Assay in all cases: NCI anticancer screen, dose series, 48 h
786-0 renal = tested on: 786-0 renal
A498 renal = tested on: A498 renal
A549 NSCLC = tested on: A549 NSCLC
ACHN renal = tested on: ACHN renal
BT-549 breast = tested on: BT-549 breast
CAKI-1 renal = tested on: CAKI-1 renal
CCRF-CEM leukemia = tested on: CCRF-CEM leukemia
COLO 205 colon = tested on: COLO 205 colon
DU-145 prostate = tested on: DU-145 prostate
EKVX NSCLC = tested on: EKVX NSCLC
HCC-2998 colon = tested on: HCC-2998 colon
HCT-116 colon = tested on: HCT-116 colon
HCT-15 colon = tested on: HCT-15 colon
HL-60(TB) leukemia = tested on: HL-60(TB) leukemia
HOP-62 NSCLC = tested on: HOP-62 NSCLC
HOP-92 NSCLC = tested on: HOP-92 NSCLC
HS 578T breast = tested on: HS 578T breast
HT29 colon = tested on: HT29 colon
IGROV1 ovarian = tested on: IGROV1 ovarian
K-562 leukemia = tested on: K-562 leukemia
KM12 colon = tested on: KM12 colon
LOX IMVI melanoma = tested on: LOX IMVI melanoma
MALME-3M melanoma = tested on: MALME-3M melanoma
MCF7 breast = tested on: MCF7 breast
MDA-MB-231 breast = tested on: MDA-MB-231 breast
MDA-MB-435 = tested on: MDA-MB-435
MDA-N = tested on: MDA-N
MOLT-4 leukemia = tested on: MOLT-4 leukemia
NCI-H226 lung = tested on: NCI-H226 lung
NCI-H23 lung = tested on: NCI-H23 lung
NCI-H460 lung = tested on: NCI-H460 lung
NCI-H522 lung = tested on: NCI-H522 lung
NCI/ADR-RES ovarian = tested on: NCI/ADR-RES ovarian
OVCAR-3 ovarian = tested on: OVCAR-3 ovarian
OVCAR-4 ovarian = tested on: OVCAR-4 ovarian
OVCAR-5 ovarian = tested on: OVCAR-5 ovarian
OVCAR-8 ovarian = tested on: OVCAR-8 ovarian
PC-3 prostate = tested on: PC-3 prostate
RPMI-8226 leukemia = tested on: RPMI-8226 leukemia
RXF 393 renal = tested on: RXF 393 renal
SF-268 CNS = tested on: SF-268 CNS
SF-295 CNS = tested on: SF-295 CNS
SF-539 CNS = tested on: SF-539 CNS
SK-MEL-28 melanoma = tested on: SK-MEL-28 melanoma
SK-MEL-5 melanoma = tested on: SK-MEL-5 melanoma
SN12C renal = tested on: SN12C renal
SNB-19 CNS = tested on: SNB-19 CNS
SNB-75 CNS = tested on: SNB-75 CNS
SR leukemia = tested on: SR leukemia
SW-620 colon = tested on: SW-620 colon
TK-10 renal = tested on: TK-10 renal
U251 CNS = tested on: U251 CNS
UACC-257 melanoma = tested on: UACC-257 melanoma
UO-31 renal = tested on: UO-31 renal
M14 melanoma = tested on: M14 melanoma
SK-MEL-2 melanoma = tested on: SK-MEL-2 melanoma
UACC-62 melanoma = tested on: UACC-62 melanoma

Compound `O=[N+]([O-])c1ccc2c(c1)Sc1ccccc1N2` has a TGI (786-0 renal) greater than 100 µM, a TGI (A498 renal) greater than 100 µM and a TGI (A549 NSCLC) greater than 100 µM. For the same compound, the TGI (ACHN renal) was greater than 100 µM, the TGI (BT-549 breast) was greater than 100 µM and the TGI (CAKI-1 renal) was greater than 100 µM. The TGI (CCRF-CEM leukemia) was greater than 100 µM, the TGI (COLO 205 colon) was greater than 100 µM and the TGI (DU-145 prostate) was greater than 100 µM. It also gave a TGI (EKVX NSCLC) greater than 100 µM, a TGI (HCC-2998 colon) greater than 100 µM and a TGI (HCT-116 colon) greater than 100 µM. It also gave a TGI (HCT-15 colon) greater than 100 µM, a TGI (HL-60(TB) leukemia) greater than 100 µM and a TGI (HOP-62 NSCLC) greater than 100 µM. It also gave a TGI (HOP-92 NSCLC) greater than 100 µM, a TGI (HS 578T breast) greater than 100 µM and a TGI (HT29 colon) greater than 100 µM. It also gave a TGI (IGROV1 ovarian) greater than 100 µM, a TGI (K-562 leukemia) greater than 100 µM and a TGI (KM12 colon) greater than 100 µM. For the same compound, the TGI (LOX IMVI melanoma) was greater than 100 µM, the TGI (MALME-3M melanoma) was greater than 100 µM and the TGI (MCF7 breast) was greater than 100 µM. The TGI (MDA-MB-231 breast) was greater than 100 µM, the TGI (MDA-MB-435) was greater than 100 µM and the TGI (MDA-N) was greater than 100 µM. It also gave a TGI (MOLT-4 leukemia) greater than 100 µM, a TGI (NCI-H226 lung) greater than 100 µM and a TGI (NCI-H23 lung) greater than 100 µM. It also gave a TGI (NCI-H460 lung) greater than 100 µM, a TGI (NCI-H522 lung) greater than 100 µM and a TGI (NCI/ADR-RES ovarian) greater than 100 µM. For the same compound, the TGI (OVCAR-3 ovarian) was greater than 100 µM, the TGI (OVCAR-4 ovarian) was greater than 100 µM and the TGI (OVCAR-5 ovarian) was greater than 100 µM. The TGI (OVCAR-8 ovarian) was greater than 100 µM, the TGI (PC-3 prostate) was greater than 100 µM and the TGI (RPMI-8226 leukemia) was greater than 100 µM. It also gave a TGI (RXF 393 renal) greater than 100 µM, a TGI (SF-268 CNS) greater than 100 µM and a TGI (SF-295 CNS) greater than 100 µM. The TGI (SF-539 CNS) was greater than 100 µM, the TGI (SK-MEL-28 melanoma) was greater than 100 µM and the TGI (SK-MEL-5 melanoma) was greater than 100 µM. The TGI (SN12C renal) was greater than 100 µM, the TGI (SNB-19 CNS) was greater than 100 µM and the TGI (SNB-75 CNS) was 81.9 µM. The TGI (SR leukemia) was greater than 100 µM, the TGI (SW-620 colon) was greater than 100 µM and the TGI (TK-10 renal) was greater than 100 µM. It also gave a TGI (U251 CNS) greater than 100 µM, a TGI (UACC-257 melanoma) greater than 100 µM and a TGI (UO-31 renal) greater than 100 µM.
Compound `CC(C)OC(=O)C1=C2c3ncccc3C(=O)N2[C@@H](Cl)[C@H](Cl)[C@H]1Cl` has a TGI (786-0 renal) greater than 100 µM, a TGI (A498 renal) greater than 100 µM and a TGI (A549 NSCLC) greater than 100 µM. For the same compound, the TGI (ACHN renal) was greater than 100 µM, the TGI (BT-549 breast) was greater than 100 µM and the TGI (CAKI-1 renal) was greater than 100 µM. For the same compound, the TGI (COLO 205 colon) was greater than 100 µM, the TGI (DU-145 prostate) was greater than 100 µM and the TGI (EKVX NSCLC) was greater than 100 µM. The TGI (HCC-2998 colon) was greater than 100 µM, the TGI (HCT-116 colon) was greater than 100 µM and the TGI (HCT-15 colon) was greater than 100 µM. For the same compound, the TGI (HL-60(TB) leukemia) was greater than 100 µM, the TGI (HOP-62 NSCLC) was greater than 100 µM and the TGI (HOP-92 NSCLC) was greater than 100 µM. The TGI (HS 578T breast) was greater than 100 µM, the TGI (HT29 colon) was greater than 100 µM and the TGI (IGROV1 ovarian) was greater than 100 µM. It also gave a TGI (K-562 leukemia) greater than 100 µM, a TGI (KM12 colon) greater than 100 µM and a TGI (LOX IMVI melanoma) greater than 100 µM. It also gave a TGI (M14 melanoma) greater than 100 µM, a TGI (MALME-3M melanoma) greater than 100 µM and a TGI (MCF7 breast) greater than 100 µM. The TGI (MDA-MB-231 breast) was greater than 100 µM, the TGI (MDA-MB-435) was greater than 100 µM and the TGI (MDA-N) was greater than 100 µM. For the same compound, the TGI (MOLT-4 leukemia) was greater than 100 µM, the TGI (NCI-H226 lung) was greater than 100 µM and the TGI (NCI-H23 lung) was greater than 100 µM. The TGI (NCI-H460 lung) was greater than 100 µM, the TGI (NCI-H522 lung) was greater than 100 µM and the TGI (NCI/ADR-RES ovarian) was greater than 100 µM. For the same compound, the TGI (OVCAR-3 ovarian) was greater than 100 µM, the TGI (OVCAR-4 ovarian) was greater than 100 µM and the TGI (OVCAR-5 ovarian) was greater than 100 µM. The TGI (OVCAR-8 ovarian) was greater than 100 µM, the TGI (PC-3 prostate) was greater than 100 µM and the TGI (RPMI-8226 leukemia) was greater than 100 µM. For the same compound, the TGI (RXF 393 renal) was greater than 100 µM, the TGI (SF-268 CNS) was greater than 100 µM and the TGI (SF-295 CNS) was greater than 100 µM. For the same compound, the TGI (SF-539 CNS) was greater than 100 µM, the TGI (SK-MEL-2 melanoma) was greater than 100 µM and the TGI (SK-MEL-28 melanoma) was greater than 100 µM. For the same compound, the TGI (SK-MEL-5 melanoma) was greater than 100 µM, the TGI (SN12C renal) was 85.9 µM and the TGI (SNB-19 CNS) was greater than 100 µM. For the same compound, the TGI (SR leukemia) was 93.8 µM, the TGI (SW-620 colon) was greater than 100 µM and the TGI (TK-10 renal) was greater than 100 µM. It also gave a TGI (U251 CNS) greater than 100 µM, a TGI (UACC-257 melanoma) greater than 100 µM and a TGI (UACC-62 melanoma) greater than 100 µM. The TGI (UO-31 renal) was greater than 100 µM.
